Laboratory results as given in US8642647B2, “N1-benzo[1,3]dioxol-5-ylmethyl-N2-substituted biguanide derivative, preparation method thereof, and pharmaceutical composition containing same” (Hanall Biopharma Co., Ltd., priority 2008, dated 2014).
“And” between values parts separate entries of the source, which are not always exact repeats. Equal values may be shown once. Where a name gives a salt, the structure may show the parent alone.

How the values were obtained:
HepG2 cells [1] = test: Measurement of triglyceride synthesis inhibitory ability; assay type: cell-based; conditions: HepG2 cells; for Triglyceride (100 μM) aver.: 100 μM compound; for Triglyceride (100 μM) aver. / Triglyceride (500 μM) aver.: 24 hours, content of triglyceride formed, lower value = stronger inhibition; for Triglyceride (500 μM) aver.: 500 μM compound
Method: (§1) 2 mM metformin was used as a comparative compound for each of the plates (control group).
HepG2 cells (ATCC: American Type Culture Collection) were cultured in 1% serum-containing media (DMEM (Gibco), FBS (Gibco)) for 24 hours, and then treated with 100 μM or 500 μM of each of the compounds prepared in Examples for 24 hours. Then, the cells were disrupted with a lysis solution (0.1 M potassium phosphate, pH 7.4, 0.05 M NaCl, 5 mM cholic acid, 0.1% Triton X-100). To the disrupted cells was added the same volume of a reaction solution (0.76 U/ml of a glycerol kinase (Asan Pharmaceutical Co., Ltd.), […] of a peroxidase (Asan Pharmaceutical Co., Ltd.), 22.2 U/ml of a glycerol oxidizing agent (Asan Pharmaceutical Co., Ltd.), and 300 μM of Amplex red as a fluorescent factor (Molecular Probe)), which was allowed to react at 37° C. for 30 minutes. After completion of the reaction, the content of triglyceride formed in the cell lysates was measured at a wavelength of 560/590 nm (ex/em) using a fluorescence microscope.
A lower measurement value means an increased triglyceride synthesis inhibitory ability.

HepG2 cells [2] = test: Measurement of cholesterol synthesis inhibitory ability; assay type: cell-based; conditions: HepG2 cells; for Cholesterol (100 μM) aver.: 100 μM compound; for Cholesterol (100 μM) aver. / Cholesterol (500 μM) aver.: 24 hours, content of cholesterol formed, lower value = stronger inhibition; for Cholesterol (500 μM) aver.: 500 μM compound
Method: as §1
A cholesterol synthesis inhibitory ability, which is an important function of AMPK (AMP-activated protein kinase), was measured using HepG2 cells (ATCC: American Type Culture Collection) as a hepatic cell model according to the following procedure.
The hepatic cell model HepG2 cells were cultured in 1% serum-containing media (DMEM (Gibco), FBS (Gibco)) for 24 hours, and then treated with 100 μM or 500 μM of each of the compounds prepared in Examples for 24 hours. Then, the cells were disrupted with a lysis solution (0.1 M potassium phosphate, pH 7.4, 0.05 M NaCl, 5 mM cholic acid, 0.1% Triton X-100 (Sigma)). To the disrupted cells was added the same volume of a reaction solution (2 U/ml of a cholesterol oxidizing agent, 2 U/ml of a peroxidase, 0.2 U/ml of a cholesterol esterase, and 300 μM of Amplex red as a fluorescent factor (Molecular Probe)), which was allowed to react at 37° C. for 30 minutes. After completion of the reaction, the content of cholesterol formed in the cell lysates was measured at a wavelength of 560/590 nm (ex/em) using a fluorescence microscope.
A lower measurement value means an increased cholesterol synthesis inhibitory ability.

HepG2 cells [3] = test: Measurement of gluconeogenesis inhibitory ability; assay type: cell-based; conditions: for activity at 100 µM: Homo sapiens, HepG2, 24 h, read-out: Gluconeogenesis inhibition (100 μM) aver.; for activity at 100 µM / Gluconeogenesis inhibition (100 μM) aver.: 100 μM compound, 24 hours, content of glucose formed from 14C-lactate, lower value = stronger inhibition
Method: as §1
HepG2 cells (ATCC: American Type Culture Collection) were cultured in 10% serum-containing high glucose media, transferred to no serum-containing low glucose media (DMEM (Gibco), FBS (Gibco)), and then treated with 100 μM of each of the compounds for 24 hours. Then, the cells were treated with 0.5 μCi ^14C-lactate (Amersham Pharmacia) and 10 mM L-lactate (Sigma), and cultured for 4 hours. After cultivation, the media were removed therefrom, and the cells were washed with PBS, treated with 0.1N NaOH and kept at room temperature for 1 hour. Then, the cells were neutralized with 1N HCl, and the content of glucose formed in the cells was measured with a liquid scintillation counter.
A lower measurement value means an increased gluconeogenesis inhibitory ability.

C2C12 cells = test: Measurement of glucose absorption ability; assay type: cell-based; conditions: for Glucose absorption (100 μM) aver.: 100 μM compound with 1 μM insulin, 24 hours, differentiated C2C12 cells, 3H-deoxy-glucose, higher value = stronger, more than 200% counts as glucose absorption ability
Method: as §1
C2C12 cells (ATCC: American Type Culture Collection), a muscle cell model, were induced to differentiate into muscle cells in 2% bovine fetal serum-containing media (DMEM (Gibco), FBS (Gibco)) for 6 days. The C2C12 cells which differentiated into muscle cells were transferred to serum-free low glucose media (DMEM (Gibco), FBS (Gibco)), treated with 100 μM of each of the compounds, and then cultured with 1 μM of insulin for 24 hours. After cultivation, the cells were treated with 1 μCi ^3H-deoxy-glucose (Amersham Pharmacia) and 10 μM deoxy-glucose (Sigma) at 37° C. for 15 minutes. The media were removed therefrom, and the cells were washed twice with PBS (phosphate buffered saline). The washed cells were treated with 0.1N NaOH and neutralized with 1N HCl. The content of glucose absorbed into the cells was measured with a liquid scintillation counter.
A higher measurement value means a stronger ability to reduce insulin resistance.

[4] = 100 μM compound versus 2 mM metformin
[5] = Metformin 2 mM, one value per plate

Compound	melting point [°C]	Triglyceride (100 μM) aver. (HepG2 cells [1])	Triglyceride (500 μM) aver. (HepG2 cells [1])	Cholesterol (100 μM) aver. (HepG2 cells [2])	Cholesterol (500 μM) aver. (HepG2 cells [2])	activity at 100 µM (HepG2 cells [3]; HepG2 cells) [%]	Gluconeogenesis inhibition (100 μM) aver. (HepG2 cells [3]; HepG2 cells)	Glucose absorption (100 μM) aver. (C2C12 cells) [%]	effect in inhibiting gluconeogenesis better than that of the control group (HepG2 cells [3]; [4])	Triglyceride aver. (control group) (HepG2 cells [1]; [5])	Cholesterol aver. (control group) (HepG2 cells [2]; [5])	Gluconeogenesis inhibition aver. (control group) (HepG2 cells [3]; Metformin 2 mM, HepG2 cells, one value per plate)	Glucose absorption aver. (control group) (C2C12 cells; Metformin 2 mM, C2C12 cells, one value per plate)	glucose absorption effect better than that of the control group (C2C12 cells; [4])	Gluconeogenesis inhibition (100 μM) aver. (HepG2 cells [3]; HepG2 cells, 100 µM)
N=C(N)NC(=Nc1cccc2ccccc12)NCc1ccc2c(c1)OCO2 (as salt: hydrochloride) [Example 3, N1-benzo[1,3]dioxol-5-ylmethyl-N2-(1-naphthyl)biguanide hydrochloride]	196.1 to 198.6														
CN=C(NCc1ccc2c(c1)OCO2)NC(=N)N.Cl [Example 17, N1-benzo[1,3]dioxol-5-ylmethyl-N2-methyl biguanide hydrochloride]	143.9 to 158.1	96.55	53.45	55.85	12.19	90.2									
Cl.N=C(NCc1ccc2c(c1)OCO2)NC(=N)Nc1ccc(-c2ccccc2)cc1 [Example 35, N1-benzo[1,3]dioxol-5-ylmethyl-N2-(4-biphenyl)biguanide hydrochloride]		18.86	14.13	9.93	23.56		2.28	39.19							
CC(C)(C)CC(C)(C)N=C(NCc1ccc2c(c1)OCO2)NC(=N)N.Cl [Example 9, N1-benzo[1,3]dioxol-5-ylmethyl-N2-t-octyl biguanide hydrochloride]	141.7 to 155.4	82.6	−1.23	37.3	−7.10	47.5			at least 20 times						
Cl.N=C(NCc1ccc2c(c1)OCO2)NC(=N)NCC1CC1 [Example 21, N1-benzo[1,3]dioxol-5-ylmethyl-N2-cyclopropanemethyl biguanide hydrochloride]		108.88	83.07	54.92	15.61		88.12	162.2							
CN(C)C(=N)N=C(N)N [Metformin, metformin, reference compound]										74.57 and 69.88 and 73.61 and 70.05	73.31 and 74.50 and 85.91 and 70.69	64.50 and 59.11 and 53.09 and 78.33	253.20% and 336.45% and 291.63% and 170.94%		
Cl.N=C(N)NC(=NCc1ccccc1)NCc1ccc2c(c1)OCO2 [Example 5, N1-benzo[1,3]dioxol-5-ylmethyl-N2-benzyl biguanide hydrochloride]		102.8	15.7	30.3	−8.28	108								about 220 times	
N1-benzo[1,3]dioxol-5-ylmethyl-N2-(1-adamantyl)biguanide hydrochloride (isomer) [Example 29]		101.52	81.39	43.03	67.50			140.2							92.07
CCc1cc(Cl)ccc1NC(=N)NC(=N)NCc1ccc2c(c1)OCO2.Cl [Example 8, N1-benzo[1,3]dioxol-5-ylmethyl-N2-(2-ethyl-4-chloro)phenyl biguanide hydrochloride]		3.35	19.3	−1.48	28.1		96.20	14.21							
N1-benzo[1,3]dioxol-5-ylmethyl-N2-t-butyl biguanide hydrochloride [Example 4]		89.8	70.1	27.6	11.0		100.2	162.5							
